This is an account of results in US6773897B2, “Method of predicting the clinical response to chemotherapeutic treatment with alkylating agents” (The Johns Hopkins University School of Medicine, priority 2000, dated 2004).

Like-named read-outs stand apart in the source and are kept apart here.

Assay [1] addresses T1, MGMT (Homo sapiens, UniProt P16455).
T1 sequence (P16455 1-207): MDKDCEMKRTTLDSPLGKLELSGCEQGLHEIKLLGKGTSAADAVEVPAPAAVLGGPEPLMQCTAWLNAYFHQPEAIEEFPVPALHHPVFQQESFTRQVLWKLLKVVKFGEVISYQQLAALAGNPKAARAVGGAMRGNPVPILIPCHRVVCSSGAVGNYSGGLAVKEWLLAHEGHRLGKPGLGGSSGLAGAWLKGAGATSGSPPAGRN
The settings on record: substrate for MGMT; cited from earlier work.

Assay [2] deals with T1, MGMT. The settings on record: cited from earlier work.
Assay [3] deals with grade III or IV gliomas (anaplastic astrocytoma, glioblastoma multiforme). The experiment in a line: Clinical response, survival and time to progression of gliomas treated with carmustine, by MGMT promoter methylation status. The format is in vivo, human. The protocol: The annealing temperature was 59° C.
Contingency tables were analyzed by Fisher's exact test.
Specimens of brain tumors from 47 consecutive subjects referred to the University Hospital of Navarre, in Pamplona, Spain, between April 1993 and November 1998 were studied. All the subjects provided written informed consent. […] Subjects were 38 to 70 years old (median age at diagnosis, 55 years); 30 were men, and 17 were women. Tumor specimens were obtained by resection or biopsy performed before the initiation of treatment with radiation and chemotherapy and were immediately frozen and stored at −80° C. All subjects were treated with intraarterial cisplatin (50 mg per square meter of body-surface area), whole-brain radiotherapy, and a median of three courses of intravenous carmustine (1,3-bis(2-chloroethyl)-1-nitrosourea, or BCNU; 100 mg per square meter) given at four-week intervals. Fifteen of the subjects also underwent autologous bone marrow transplantation plus high-dose chemotherapy treatment with three doses of intravenous carmustine (300 mg per square meter) per day and one dose of intraarterial cisplatin (100 mg)
The response to treatment was evaluated after the subjects had completed therapy. A complete response was defined as the absence of any evidence of the tumor on computed tomographic (CT) and magnetic resonance imaging (MRI) scans, with no need for steroid treatment and an improvement in the subject's general condition. Subjects with persistent CT abnormalities but with more than a 50 percent reduction in both the diameter and the volume of the tumor, a reduced need for steroid treatment, and a stabilized neurologic condition were considered to have a partial response. The disease was considered to have progressed if both the diameter and volume of the tumor increased by 25 percent or more of the initial measurements, if a new lesion was evident on CT or MRI scans, or if the subject's neurologic condition worsened and required an increased dose of steroids.
Forty-seven newly diagnosed grade III or IV gliomas (classified as anaplastic astrocytoma in 18 subjects and as glioblastoma multiforme in 29) were analyzed. Methylation of the MGMT promoter was found in 19 of the 47 tumors (40 percent) a frequency similar to that found in a previous study (Estellar, 1999, supra) and consistent with that in other reports (Silber et al., Cancer Res 1993; 53:3416-3420; and Silber et al., Cancer Res 1998; 58:1068-1073). Methylation was not associated with the subject's age, the Karnofsky score for performance status, or the grade of the tumor (P>0.3 for each comparison).

Assay [4] has as its system diffuse large B-cell lymphoma (B-DLCL). The protocol: DNA was extracted according to standard protocols known to those of skill in the art (see, e.g., Sambrook et al., Molecular Cloning: a Laboratory Manual, 2nd Ed.; Cold Spring Harbor Laboratory Press, Plainview, N.Y., 1998, herein incorporated by reference). Methylation patterns in the CpG island of MGMT were determined by chemical modification of unmethylated, but not methylated, cytosines to uracil. Methylation-specific polymerase chain reaction (PCR) was performed with primers specific for either methylated or the modified unmethylated DNA, as previously described (Esteller, et al. Cancer Res 1999; 59:793-797; incorporated herein by reference in its entirety; and Herman et al. Proc Natl Acad Sci USA 1996;93:9821-9826; incorporated herein by reference in its entirety). DNA (1 μg) was denatured with sodium hydroxide and modified with sodium bisulfite. DNA samples were then purified with the Wizard DNA purification resin (Promega, Madison, Wis.), again treated with sodium hydroxide, precipitated with ethanol, and resuspended in water. Primer sequences for the unmethylated reaction were 5′[…]3′ (forward primer; SEQ ID NO:1) and 5′[…]3′ (reverse primer; SEQ ID NO:2), and for the methylated reaction they were 5′[…]3′ (forward primer; SEQ ID NO:3) and 5′[…]3′ (reverse primer; SEQ ID NO:4). The annealing temperature was 59° C. Placental DNA treated in vitro with Sss I methyltransferase (New England Biolabs, Beverly, Mass.) was used as a positive control for methylated alleles of MGMT, and DNA from normal lymphocytes was used as a negative control. Controls without DNA were used for each set of methylation-specific PCR assays. Ten microliters of each 50-μl methylation-specific PCR product was loaded directly onto nondenaturing 6 percent polyacrylamide gels, stained with ethidium bromide, and examined under ultraviolet illumination.
Continuous variables were compared with the use of Student's t-test. Contingency tables were analyzed by Fisher's exact test. Disease-free and overall survival curves were estimated by the Kaplan-Meier method and were compared with the use of the log-rank test. Multivariate survival analyses were performed with the Cox proportional-hazards model, and proportional-hazards assumptions were checked with the use of Schoenfeld residuals and graphic methods. Descriptive or stratified analyses always preceded parametric modeling in order to confirm that the assumptions underlying the models were met. The results are reported as two-sided P values with 95 percent confidence intervals. Analyses were performed with the use of JMP software (version 3.1, SAS Institute, Cary, N.C.) and Stata software (version 6.0, Stata, College Station, Tex.).
Clinical follow-up was obtained until Aug. 31, 1999 or until death. […] Diagnosis was based on histopathology, immunophenotypic analysis of cell surface markers, and immunogenotypic analysis of immunoglobulin gene rearrangement. The histopathologic definition of B-DLCL was according to the REAL classification (Harris N L, et al., Blood. 1994;84:1361-92). Subjects positive for human immunodeficiency virus were not included in the study. Staging included routine blood chemistry tests; blood cell counts and differential; EKG; chest x-ray; computed tomography of chest, abdomen and pelvis; and bilateral bone marrow biopsy in all subjects. Disease stage was assessed according to Ann Arbor criteria (Carbone P P, et al., Cancer Res. 1971;31:1860-1). The International Prognostic […] (IPI) was calculated as described (The International Non-Hodgkin's Lymphoma Prognostic Factors Project. A predictive model for aggressive non-Hodgkin's lymphoma. N Engl J Med. 1993;329:987-94), with subjects classified as Low, Low-Intermediate, High-Intermediate, and High risk.
Treatment varied, depending on stage of disease, date of diagnosis, institution and prognostic factors.

Setting [5] is: subjects with MGMT methylation (N=30).
[6] abbreviates: subjects without methylation (N=54).

In the case of `Nc1nc(OCc2ccccc2)c2nc[nH]c2n1` [O^6-benzylguanine], the “effect on MGMT enzyme” value in assay [1] is on record as “inactivates the enzyme”. Besides, the “effect on sensitivity to cyclophosphamide metabolites” value in assay [2] was “increase sensitivity to cyclophosphamide metabolites”. Moreover, in assay [2] (in vitro and in vivo), the “effect on response to alkyl nitrosoureas” value is “enhance the response to alkyl nitrosoureas in vitro and in vivo”.

Consider `O=NN(CCCl)C(=O)NCCCl` [carmustine, 1,3-bis(2-chloroethyl)-1-nitrosourea], for which the “risk of death, hazard ratio” value in assay [3] (lack of methylation vs methylation, univariate, 95% CI 3.0 to 42.7) came to 9.5. For the same compound, in assay [3] (methylated (N=19)), the “Complete response, % (95% CI)” value is 11 (1-33) %; the “No Change, % (95% CI)” value was 16 (3-38) %; the “Partial response, % (95% CI)” value is 52 (29-76) %; the “Progression, % (95% CI)” value is reported as 21 (6-44) %. For the same compound, the “median time to the progression of disease” value in assay [3] (methylated gliomas) amounted to 21 months. In addition, the “time to progression, hazard ratio associated with nonmethylation” value in assay [3] (nonmethylation vs methylation, 95% CI 4.4 to 30.8) amounted to 10.8. Besides, the “partial or complete response to carmustine” value in assay [3] (subjects with methylated MGMT promoter tumors (N=19)) is 63%. For the same compound, the “partial or complete response to carmustine” value in assay [3] (subjects with unmethylated MGMT promoter tumors (N=28)) was found to be 4%. Moreover, in assay [3] (unmethylated (N=28)), the “Complete response, % (95% CI)” value is 0 (0-12) %; the “No Change, % (95% CI)” value is given as 14 (4-33) %; the “Partial response, % (95% CI)” value is reported as 4 (0-18) %; the “Progression, % (95% CI)” value is 82 (63-94) %. Moreover, the “median time to the progression of disease” value in assay [3] (unmethylated gliomas) came to 8 months.

For `O=P1(N(CCCl)CCCl)NCCCO1` (stereo not shown) [cyclophosphamide], in assay [4] (setting [5]), the “CR (complete remission)” value is 77%, the NR is recorded as 10% and the “PR (partial remission)” value came to 13%. Moreover, in assay [4] (setting [6]), the NR amounted to 22%, the “PCR (complete remission)” value was determined as 63% and the “PR (partial remission)” value was found to be 15%. For the same compound, the “time to death, hazard ratio for non-methylation” value in assay [4] (univariate, 95% CI 1.2 to 7.5, p=0.01) was determined as 2.8. Besides, the “disease progression, hazard ratio without vs with methylation” value in assay [4] (univariate, 95% CI 1.3 to 5.8, p=0.005) was 2.6.
